Data published in PMC6459484, “Synthetic surfactin analogues have improved anti-PEDV properties” (PLoS ONE, 2019).
In brackets after ≈: the same amount, converted by molar mass. Entries after “also recorded” stand apart in the source; their conditions may differ. Square brackets hold non-standard residues; d marks the D form. Peptide text beside a SMILES is read from it. * marks the point of attachment. X1 = CCCCCCCc1ccc(-c2ccc(C(=O)*)cc2)cc1; Palmitoyl = CCCCCCCCCCCCCCCC(=O)*

Columns and labels:
PEDV = assay: Time of addition assay (viral N protein by western blot, viral RNA by qRT-PCR); assay type: cell-based, Porcine epidemic diarrhea virus; details: Vero cells, 1000 PFU PEDV, harvested 12 hpi, SLP5 50 μg/ml, surfactin 20 μg/ml; for PEDV replication (nucleic acid and protein levels), reagent present throughout the experiment (treatment group 2) or at any stage: DEPE 5 μg/ml, 3 independent experiments
Description: Time of addition assay was performed according to the procedures described, with modifications. Confluent Vero cells in 12-well plates were infected with 1000 PFU of PEDV and incubated for 1 hr at 4 °C to synchronize infection. The inoculum was removed and 1 mL of 37 °C DMEM was added to each well, cells were then placed at 37 °C in a humidified incubator. At the indicated time points, SLP5, surfactin, or dielaidoyl-phosphatidylethanolamine (DEPE, AvantiPolarLipids, Alabaster, AL) was added dropwise to cells or virus to a final concentration of 50 μg/ml, 20 μg/ml, or 5 μg/ml and incubated a further 12 hours at 37 °C. Viral nucleic acid and protein levels in the cells were measured by qRT-PCR and western-blot respectively. The data shown is representative of 3 independent experiments.
Total RNA was extracted from cells using TRIzol Reagent (Invitrogen) according to the manufacturer’s instructions. cDNA was generated by reverse transcription using HiScript TM QRT SuperMix for qPCR (Vazyme) according to the manufacturer’s instructions. PEDV nucleic acid levels were assessed by measuring the viral nucleoprotein (N) using qRT-PCR with the TaKaRa SYBR Green qPCR Kit (TaKaRa). Primer sequences were as follows: PEDV-N-F (sense), 5’-[…]-3’; PEDV-N-R (antisense), 5’-[…]-3’; C-sabaeus-GAPDH-F, 5’-[…]-3’; C-sabaeus-GAPDH-R, 5’-[…]-3’. Gene level was calculated using the comparative Ct method and normalized to the endogenous levels of GAPDH.
Boiled cell lysates were subjected to SDS-PAGE then transferred to PVDF membrane (Roche, Basel, Switzerland) using a semi-dry transfer apparatus (GE, Little Chalfont, Buckinghamshire, UK). Membranes were blocked in 5% non-fat milk in TBS containing 0.01% Tween-20 (TBST) then incubated overnight at 4 °C with anti-PEDV N-protein monoclonal antibody (Median Diagnostics, South Korea) diluted in TBST with 1% BSA. Membranes were washed 30 min in TBST followed by incubation for 1 h at RT with 1:5000 HRP goat anti-mouse IgG antibody (ABGENT, San Diego, CA, USA) then thrice washed for 15 min in TBST. Membranes were incubated with ECL reagent (Thermo, Waltham, MA, USA) and imaged using a ChemiDoc™ system (Bio-Rad, Hercules, CA, USA).
Since SLP5 was the most promising surfactin analogue, we chose it for further study. Time of addition assays were performed to determine whether the SLP5 exerts its anti-PEDV effect at the same stage during infection as surfactin. Since surfactin acts directly on virions, the experiment was designed to examine events early in the infection process. Fig 6A summarizes the experimental plan and the eight treatments tested. Briefly, SLP5, surfactin, or DEPE was added to virus alone, cells alone, or to cells and virus together prior to infection, during virus adsorption, during virus invasion (1 h post infection at 37 °C), or during replication (1–12 hpi). Samples were harvested 12 hours after infection, and analyzed to measure cellular levels of viral protein (Fig 6B and 6C) and viral RNA (Fig 6D). […] Other antiviral mechanisms of SLP5 and surfactin cannot be ruled out since PEDV replication is inhibited to different degrees in some of the other treatment groups.
Fig 6 Time-of-addition experiments. (A) Vero cells were treated with SLP5, surfactin, or DEPE at different time points before, during, and after infection. […] (B) The PEDV nucleoprotein was detected by Western-blot, and (C) quantitated by band intensity relative to the internal control, GAPDH. (D) The PEDV genome was detected by qRT-PCR. […]

[1] = Critical micelle concentration by surface tension (ring method); assay type: physicochemical; details: samples stood 30 min at 22 °C, intersection of two linear regression lines
Description: Surface tensions were measured using the ring method. Samples were freshly prepared in a testing flask and allowed to stand for 30 minutes at 22 °C. Surface tension measurements were made using a surface tensiometer (HLD-LST-II, HENLIDA Co., Ltd, China). Linear regressions of the drop and the flat area were performed separately for the surface tension-concentration curve. The concentration at the intersection of the two lines is the critical micelle concentration (CMC).
The CMC was calculated by measuring the surface tension of each SLP over a range of concentrations. […] Linear regressions were performed independently using the data on the descending part of the curve below the CMC and the equilibrium part above the CMC. The intersection of the linear regression lines corresponds to the CMC (Table 3).
Fig 4 Critical micelle concentrations of the SLPs. CMCs were determined for SDS, surfactin, and SLPs by surface tension. The intersection of the two linear regression lines corresponds to the CMC value, (shown by the dotted lines).

PEDV CV777 = assay: Plaque reduction assay (anti-PEDV activity); assay type: cell-based, Porcine epidemic diarrhea virus; details: for Antiviral potency relative to SLP3: anti-PEDV plaque reduction, compared with SLP3; for Anti-PEDV potency compared with surfactin: plaque reduction assay, result in words
Description: Cercopithecus aethiops kidney epithelial cells (Vero, ATCC, CCL-81) were cultured in high glucose DMEM (Gibco, US), supplemented with 10% fetal bovine serum (FBS, GIBCO), at 37 °C in a 5% CO2 humidified atmosphere. Cells were routinely seeded at a density of 2×10^5 /mL in plastic tissue culture flasks (25 cm^2 flasks, Corning, USA) and passaged every 3–4 days. PEDV CV777 was provided by the Jiangsu Academy of Agricultural Sciences (JAAS).
Vero cells were seeded at 2 × 10^5 cells/well in 24-well tissue culture plates and incubated 18–24 h at 37 °C until approximately 95% confluency was reached. 100 PFU of PEDV mixed with an equal volume of SLP in DMEM or DMEM alone were incubated 10 minutes at 37 °C, then added into the wells of the Vero cells and incubated 30 minutes at 4 °C. Cells were washed 3 times with DMEM then overlaid with DMEM/1% agar and incubated 72 hours at 37 °C. The cells were fixed with 4% formaldehyde, then stained with 0.1% crystal violet after the agar overlay was removed. The data are representative of 3 biological replicates and each plaque assay was performed in triplicate and values are expressed as means ± the standard deviation. Curve fitting and EC50 were calculated with GraphPad Prism 6 using the log[inhibitor] vs. response equation.
The SLPs were tested for anti-PEDV activity using a plaque reduction assay. Serial dilutions of SLPs were incubated with an equal volume of PEDV then aliquoted onto precooled cells in 12-well plates. After the virus has adsorbed to the cells at 4 °C, SLPs were washed away. The adsorbed virus particles were then counted by plaque forming assays (Fig 2A). The results were fitted to a sigmoid-curve and plotted Fig 2B. All SLPs have potent anti-PEDV effects above 50 μg/ml, but differences in their anti-PEDV effect.
Fig 2 Anti-PEDV activities of lipopeptides. (A) PEDV was incubated with series concentrations of SLPs for 10 minutes at 37 °C. After washing cells of unadsorbed virus, the remaining infectious particles was detected by plaque assay. (B) Anti-PEDV activity (% remaining PFU) plotted as a function of lipopeptide concentration. The results of three independent experiments are shown as means ± standard deviation. 100% represents plaque counts in the control (no lipopeptide) sample.

porcine RBCs = assay type: cell-based; details: for CC50 (50% cytotoxicity concentration, hemolysis): red cells of porcine, 1 h
Description: Hemolytic activity was measured according to the methods described in Jingdan, with some modifications. Briefly, serial dilutions of SLPs were added to 200 uL of a 1% suspension of porcine RBCs in PBS, followed by incubation for 1 h at 37 °C. Cells were centrifuged at 1000 g for 10 min, then 100 uL of each supernatant was transferred to wells of a 96-well plate. The optical density at 540 nm was measured using a microplate reader (Infinite 200 PRO, Tecan Group Ltd., Switzerland) and % hemolysis was calculated using the formula: Hemolysis(%)=ODS-ODB/ODP-ODB×100% where ODS, ODB, and ODP represent the optical density of the SLP-treated samples, negative control and positive control, respectively. 1% Triton X-100 was used for the positive control. Each sample was run in triplicate.
Fig 3 Hemolytic activity of lipopeptides. (A) The indicated concentration of SLPs were added to a 1% porcine RBC suspension in PBS, followed by incubation for 1 h at 37 °C and centrifugation. Pictures were taken after collecting a portion of the supernatant for quantification of hemolysis. (B) Hemolytic curve. Hemolysis (measured at OD540) is shown as a function of SLP concentration. 100% represents the OD obtained using 0.1% Triton X-100-treated red blood cells.

[2] = 100 PFU PEDV pre-incubated with lipopeptide 10 min at 37 °C, adsorbed to Vero cells 30 min at 4 °C, washed, agar overlay 72 h, 3 biological replicates each in triplicate, mean ± SD, log[inhibitor] vs. response fit

SMILES | CMC [1] [µg/mL] | EC50 (PEDV CV777; 72 h) [mg/L] | EC50 (PEDV CV777; [2]) [mg/L] | PEDV replication (nucleic acid and protein levels), reagent present throughout the experiment (treatment group 2) or at any stage (PEDV) | Antiviral potency relative to SLP3 (PEDV CV777) | Anti-PEDV potency compared with surfactin (PEDV CV777) | CC50 (50% cytotoxicity concentration, hemolysis) (porcine RBCs) [mg/L] | PEDV replication, treatment group 5 (PEDV; same as group 2 (little replication)) | Hemolytic activity, result in words (porcine RBCs)
CCCCCCCC/C=C/CCCCCCCC(=O)OC[C@H](COP(=O)(O)OCCN)OC(=O)CCCCCCC/C=C/CCCCCCCC [DEPE, dielaidoyl-phosphatidylethanolamine] |  |  |  | did not affect PEDV replication at any stage |  |  |  |  | 
CCCCCCCCCCCCOS(=O)(=O)[O-].[Na+] [SDS, reference compound] | 296 |  |  |  |  |  |  |  | 
CCCCCCCCCCCCCCCC(=O)N[C@@H](CCC(=O)O)C(=O)N[C@H](C(=O)N[C@H](CC(C)C)C(=O)N[C@H](CC(C)C)C(N)=O)C(C)C [SLP4] (Palmitoyl-EV[dL][dL]-NH2) | 10.6 | 5.4 ± 0.4 (≈ 7.61 µM) |  |  | about 3 fold | higher potency than surfactin | 12.9 ± 0.2 (≈ 18.2 µM) |  | 
CCCCCCCCCCCCCCCC(=O)N[C@@H](CCC(=O)O)C(=O)N[C@H](C(=O)N[C@H](CC(C)C)C(=O)N[C@@H](CC(=O)O)C(=O)N[C@H](CC(C)C)C(=O)O)C(C)C [SLP5] (Palmitoyl-EV[dL]D[dL]-OH) | 15.0 | 16.5 ± 0.6 (≈ 20 µM) |  | little PEDV replication occurs |  | equaled | 847.2 ± 124.9 (≈ 1030 µM) | act directly on the virus | 
CCCCCCCCCCCCCCCC(=O)N[C@@H](CCCCN)C(=O)N[C@H](C(=O)N[C@H](CC(C)C)C(=O)N[C@@H](CCCCN)C(=O)N[C@H](CC(C)C)C(N)=O)C(C)C [SLP6] (Palmitoyl-KV[dL]K[dL]-NH2) | 22.4 | 6.1 ± 0.3 (≈ 7.29 µM) |  |  |  | higher potency than surfactin | 12.6 ± 0.4 (≈ 15 µM) |  | strongest hemolytic activity

Further lines, with some results ahead:

CMC [1] [µg/mL] | EC50 (PEDV CV777; 72 h) [mg/L] | EC50 (PEDV CV777; [2]) [mg/L] | SMILES | PEDV replication (nucleic acid and protein levels), reagent present throughout the experiment (treatment group 2) or at any stage (PEDV) | Antiviral potency relative to SLP3 (PEDV CV777) | Anti-PEDV potency compared with surfactin (PEDV CV777) | CC50 (50% cytotoxicity concentration, hemolysis) (porcine RBCs) [mg/L] | PEDV replication, treatment group 5 (PEDV; same as group 2 (little replication)) | Hemolytic activity, result in words (porcine RBCs)
17.1 |  | 14.0 ± 0.6 (≈ 17 µM) | CCCCCCCCCCCCCCCC(=O)N[C@@H](CCC(=O)O)C(=O)N[C@H](C(=O)N[C@@H](CC(C)C)C(=O)N[C@@H](CC(=O)O)C(=O)N[C@@H](CC(C)C)C(N)=O)C(C)C [SLP7] (Palmitoyl-EVLDL-NH2) |  |  |  | 274.1 ± 21.0 (≈ 332 µM) |  | 
20.2 | 2.6 ± 0.2 (≈ 3.15 µM) |  | CCCCCCCCCCCCCCCC(=O)N[C@@H](CCC(=O)O)C(=O)N[C@H](C(=O)N[C@H](CC(C)C)C(=O)N[C@H](CC(C)C)C(=O)N[C@@H](CC(=O)O)C(N)=O)C(C)C [SLP8] (Palmitoyl-EV[dL][dL]D-NH2) |  | 6.5 fold | higher potency than surfactin; also recorded: exceeded | 217.5 ± 18.9 (≈ 264 µM) |  | low hemolytic activity
9.4 |  | 12.8 ± 0.5 (≈ 15.5 µM) | CCCCCCCCCCCCCCCC(=O)N[C@@H](CCC(=O)O)C(=O)N[C@@H](CC(=O)O)C(=O)N[C@H](C(=O)N[C@H](CC(C)C)C(=O)N[C@H](CC(C)C)C(N)=O)C(C)C [SLP9] (Palmitoyl-EDV[dL][dL]-NH2) |  |  |  | 52.2 ± 2.0 (≈ 63.3 µM) |  | 
 |  | 10.6 ± 0.5 (≈ 12.3 µM) | CCCCCCCc1ccc(-c2ccc(C(=O)N[C@@H](CCC(=O)O)C(=O)N[C@H](C(=O)N[C@H](CC(C)C)C(=O)N[C@@H](CC(=O)O)C(=O)N[C@H](CC(C)C)C(N)=O)C(C)C)cc2)cc1 [SLP10] (X1-EV[dL]D[dL]-NH2) |  |  |  | 82.8 ± 3.4 (≈ 95.7 µM) |  | 
